Measurements taken from US20260055083A1, “APOL1 INHIBITORS AND METHODS OF USE” (Maze Therapeutics, Inc., priority 2022, published 2026).

Experiments:
APOL1 G2 [1] = biological target: T1, APOL1 G2 (Homo sapiens, UniProt O14791, DEL388-389); assay: APOL1 G2 FLIPR calcium influx assay (HEK T-REx/GCaMP6f/APOL1 G2 K6.3 cells); assay type: cell-based; details: HEK293 clone expressing GCaMP6f, doxycycline-induced APOL1 G2; prevention of calcium influx; geometric mean of at least 2 assay runs
T1 construct: expressed in transfected cells; host or cells: HEK293/T-REx APOL1 G2 clone #2, doxycycline-inducible
T1 sequence (O14791 with tags, fused parts or gaps DEL388-389): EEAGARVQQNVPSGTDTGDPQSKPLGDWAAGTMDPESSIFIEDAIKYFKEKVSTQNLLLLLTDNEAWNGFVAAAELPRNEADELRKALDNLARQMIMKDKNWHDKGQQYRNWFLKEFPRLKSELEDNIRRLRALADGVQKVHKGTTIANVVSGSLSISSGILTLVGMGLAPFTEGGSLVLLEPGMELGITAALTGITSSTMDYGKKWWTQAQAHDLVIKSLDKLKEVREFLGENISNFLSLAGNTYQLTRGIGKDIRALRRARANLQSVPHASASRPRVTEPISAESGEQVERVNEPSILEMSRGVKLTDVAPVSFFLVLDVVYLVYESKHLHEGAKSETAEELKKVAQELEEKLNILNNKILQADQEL
How it was run: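 HEK293 clone stably expressing GCaMP6f, APOL1 G2 induced with doxycycline for 6 h; compounds (duplicate 8-point dose response) preincubated 10 min at room temperature in Ca2+-free Tyrode's buffer, pH 7.4. Ca2+ added to 5 mM final, influx read on FLIPR; AC50 is geometric mean of ≥2 runs.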

APOL1 G2 [2] = biological target: T1, APOL1 G2; assay: APOL1 G2 HEK293 rescue of cell death caused by overexpression of APOL1 (CellTiter-Glo); assay type: cell-based; details: HEK293/T-REx APOL1 G2 clone #2, doxycycline induction, 17 hours, CellTiter-Glo luminescence; reversal of cell death; geometric mean of at least 2 assay runs
How it was run: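 Doxycycline (6 ng/mL)-induced HEK293/T-REx APOL1 G2 clone seeded at 5,000 cells/well with compound in duplicate 8-point 3-fold series (0.5% DMSO), 17 h at 37 °C. CellTiter-Glo luminescence; EC50 from four-parameter logistic fit, geometric mean of ≥2 runs.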

AC50 (APOL1 G2 [1]) [µM] | SMILES | EC50 (APOL1 G2 [2]) [µM]
0.794 | C[C@@H]1C[C@H](COc2ccc(S(=O)(=O)CCO)cc2)CN1C1CCc2ccc(C#N)cc2C1 (single isomer, unassigned) [Compound 59, (7R or 7S)-7-[(2R,4S)-4-{[4-(2-hydroxyethanesulfonyl)phenoxy]methyl}-2-methylpyrrolidin-1-yl]-5,6,7,8-tetrahydronaphthalene-2-carbonitrile] | 0.38
0.477 | C[C@@H]1C[C@H](COc2ccc(S(=O)(=O)CCO)cc2)CN1C1CCc2ccc(C#N)cc2C1 (single isomer, unassigned) [Compound 60, (7S or 7R)-7-[(2R,4S)-4-{[4-(2-hydroxyethanesulfonyl)phenoxy]methyl}-2-methylpyrrolidin-1-yl]-5,6,7,8-tetrahydronaphthalene-2-carbonitrile] | 0.037
0.462 | C[C@@H]1C[C@H](COc2ccc(S(=O)(=O)CCO)cc2)CN1C1CCc2ccc(Cl)cc2C1 (single isomer, unassigned) [Compound 62, 2-(4-{[(3S,5R)-1-[(2R or 2S)-7-chloro-1,2,3,4-tetrahydronaphthalen-2-yl]-5-methylpyrrolidin-3-yl]methoxy}benzenesulfonyl)ethan-1-ol] | 0.201
0.188 | C[C@@H]1C[C@H](COc2ccc(S(=O)(=O)CCO)cc2)CN1C1CCc2ccc(Cl)cc2C1 (single isomer, unassigned) [Compound 63, 2-(4-{[(3S,5R)-1-[(2S or 2R)-7-chloro-1,2,3,4-tetrahydronaphthalen-2-yl]-5-methylpyrrolidin-3-yl]methoxy}benzenesulfonyl)ethan-1-ol] | 0.0248
0.346 | C[C@@H]1CN(CCc2cccc(C#N)c2)C[C@H]1COc1ccc(S(C)(=O)=NCCS(C)(=O)=O)cc1 (single isomer, unassigned) [Compound 69] | 0.377
0.236 | C[C@@H]1CN(CCc2cccc(C#N)c2)C[C@H]1COc1ccc(S(C)(=O)=NCCS(C)(=O)=O)cc1 (single isomer, unassigned) [Compound 70] | 0.342
0.183 | CN=S(C)(=O)c1ccc(OC[C@@H]2CN(CCc3cccc(C#N)c3)C[C@H]2C)cn1 (single isomer, unassigned) [Compound 72] | 0.217
0.351 | CN=S(C)(=O)c1ccc(OC[C@@H]2CN(CCc3cccc(C#N)c3)C[C@H]2C)cn1 (single isomer, unassigned) [Compound 73] | 0.375
1.25 | C[C@@H]1C[C@H](COc2ccc(S(C)(=O)=O)nc2)CN1CC(O)c1cccc(C#N)c1 (single isomer, unassigned) [Compound 93, 3-[(1R or 1S)-1-hydroxy-2-[(2R,4S)-4-{[(6-methanesulfonylpyridin-3-yl)oxy]methyl}-2-methylpyrrolidin-1-yl]ethyl]benzonitrile] | 1.67
0.614 | C[C@@H]1C[C@H](COc2ccc(S(C)(=O)=O)nc2)CN1CC(O)c1cccc(C#N)c1 (single isomer, unassigned) [Compound 94, 3-[(1S or 1R)-1-hydroxy-2-[(2R,4S)-4-{[(6-methanesulfonylpyridin-3-yl)oxy]methyl}-2-methylpyrrolidin-1-yl]ethyl]benzonitrile] | 0.103
1.04 | Cc1cc(OC[C@H]2C[C@@H](C)N(CC(O)c3cccc(C#N)c3)C2)cnc1S(C)(=O)=O (single isomer, unassigned) [Compound 95, 3-[(1R or 1S)-1-hydroxy-2-[(2R,4S)-4-{[(6-methanesulfonyl-5-methylpyridin-3-yl)oxy]methyl}-2-methylpyrrolidin-1-yl]ethyl]benzonitrile] | 1.14
0.188 | Cc1cc(OC[C@H]2C[C@@H](C)N(CC(O)c3cccc(C#N)c3)C2)cnc1S(C)(=O)=O (single isomer, unassigned) [Compound 96, 3-[(1S or 1R)-1-hydroxy-2-[(2R,4S)-4-{[(6-methanesulfonyl-5-methylpyridin-3-yl)oxy]methyl}-2-methylpyrrolidin-1-yl]ethyl]benzonitrile] | 0.0277
0.813 | CC(C(O)c1cc(Cl)cc(C#N)c1)N1C[C@@H](COc2ccc(S(C)(=O)=O)cc2)C[C@H]1C (single isomer, unassigned) [Compound 97, 3-chloro-5-[(1S,2S or 1R,2R or 1R,2S or 1S,2R)-1-hydroxy-2-[(2R,4S)-4-[(4-methanesulfonylphenoxy)methyl]-2-methylpyrrolidin-1-yl]propyl]benzonitrile] | 2.1

The remaining lines, values behind:

SMILES | AC50 (APOL1 G2 [1]) [µM] | EC50 (APOL1 G2 [2]) [µM]
C[C@@H]1C[C@H](COc2ccc(S(=O)(=O)CCCS(C)(=O)=O)cc2)CN1C1CCc2c(C#N)cc(Cl)cc2C1 (single isomer, unassigned) [Compound 45, (6S or 6R)-3-chloro-6-[(2R,4S)-4-{[4-(3-methanesulfonylpropanesulfonyl)phenoxy]methyl}-2-methylpyrrolidin-1-yl]-5,6,7,8-tetrahydronaphthalene-1-carbonitrile] | 0.998 | 0.3
C[C@@H]1C[C@H](COc2ccc(S(=O)(=O)CCS(C)(=O)=O)cc2)CN1C1CCc2c(C#N)cc(Cl)cc2C1 (single isomer, unassigned) [Compound 47, (6S or 6R)-3-chloro-6-[(2R,4S)-4-{[4-(2-methanesulfonylethanesulfonyl)phenoxy]methyl}-2-methylpyrrolidin-1-yl]-5,6,7,8-tetrahydronaphthalene-1-carbonitrile] | 0.926 | > 3.34
C[C@@H]1C[C@H](COc2ccc(S(=O)(=O)CCS(C)(=O)=O)cc2)CN1C1CCc2c(C#N)cc(Cl)cc2C1 (single isomer, unassigned) [Compound 48, (6R or 6S)-3-chloro-6-[(2R,4S)-4-{[4-(2-methanesulfonylethanesulfonyl)phenoxy]methyl}-2-methylpyrrolidin-1-yl]-5,6,7,8-tetrahydronaphthalene-1-carbonitrile] | 1.13 | 0.398
C[C@@H]1C[C@H](COc2ccc(S(=O)(=O)CCS(C)(=O)=O)cc2)CN1C1CCc2ccc(Cl)cc2C1 (single isomer, unassigned) [Compound 50, (2R,4S)-1-[(2S or 2R)-7-chloro-1,2,3,4-tetrahydronaphthalen-2-yl]-4-{[4-(2-methanesulfonylethanesulfonyl)phenoxy]methyl}-2-methylpyrrolidine] | 1.07 | 0.346
C[C@@H]1C[C@H](COc2ccc(S(=O)(=O)CCS(C)(=O)=O)cc2)CN1C1CCc2ccc(Cl)cc2C1 (single isomer, unassigned) [Compound 51, (2R,4S)-1-[(2R or 2S)-7-chloro-1,2,3,4-tetrahydronaphthalen-2-yl]-4-{[4-(2-methanesulfonylethanesulfonyl)phenoxy]methyl}-2-methylpyrrolidine] | 0.439 | 0.128
C[C@@H]1C[C@H](COc2ccc(S(=O)(=O)CCCS(C)(=O)=O)cc2)CN1C1CCc2ccc(Cl)cc2C1 (single isomer, unassigned) [Compound 53, (2R,4S)-1-[(2R or 2S)-7-chloro-1,2,3,4-tetrahydronaphthalen-2-yl]-4-{[4-(3-methanesulfonylpropanesulfonyl)phenoxy]methyl}-2-methylpyrrolidine] | 0.999 | 0.279
C[C@@H]1C[C@H](COc2ccc(S(=O)(=O)CCCS(C)(=O)=O)cc2)CN1C1CCc2ccc(Cl)cc2C1 (single isomer, unassigned) [Compound 54, (2R,4S)-1-[(2S or 2R)-7-chloro-1,2,3,4-tetrahydronaphthalen-2-yl]-4-{[4-(3-methanesulfonylpropanesulfonyl)phenoxy]methyl}-2-methylpyrrolidine] | 0.857 | 0.0548
C[C@@H]1C[C@H](COc2ccc(S(=O)(=O)CCO)cc2)CN1C1CCc2c(C#N)cc(Cl)cc2C1 (single isomer, unassigned) [Compound 56, (6R or 6S)-3-chloro-6-[(2R,4S)-4-{[4-(2-hydroxyethanesulfonyl)phenoxy]methyl}-2-methylpyrrolidin-1-yl]-5,6,7,8-tetrahydronaphthalene-1-carbonitrile] | 0.714 | 0.185
C[C@@H]1C[C@H](COc2ccc(S(=O)(=O)CCO)cc2)CN1C1CCc2c(C#N)cc(Cl)cc2C1 (single isomer, unassigned) [Compound 57, (6S or 6R)-3-chloro-6-[(2R,4S)-4-{[4-(2-hydroxyethanesulfonyl)phenoxy]methyl}-2-methylpyrrolidin-1-yl]-5,6,7,8-tetrahydronaphthalene-1-carbonitrile] | 0.802 | 0.266
